Eleven molecules from US10030020B2, “Spirocycle compounds and methods of making and using same” (Abide Therapeutics, Inc., priority 2016, dated 2018) can be followed below.

The target in test [1] is T1, ABHD6 (Mus musculus (Mouse), UniProt Q8R2Y0). Kind of test: In vitro competitive activity-based protein profiling (mouse brain membrane fraction or cell lysates), ABHD6 band. As to conditions: mouse proteome; for inhibition at 1 µM: read-out: ABHD6 % Inh 1 μM (mouse); for IC50: competitive ABPP. The class given is biochemical. An outline of the steps: (§1)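 Mouse proteome samples (brain membrane fraction or cell lysate, 1.0 mg/mL protein) were pretreated with varying inhibitor concentrations and subsequently probed with fluorophosphonate-rhodamine, each step lasting 30 min at 37° C. Labelled proteins were separated by SDS-PAGE, and band fluorescence was imaged and quantified.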

For test [2], the target named is T1, ABHD6. As to the kind of experiment: Mouse brain proteomes from inhibitor treated mice (oral gavage, sacrificed 4 h after administration, ABPP analysis), ABHD6. Type of test: in vivo, mouse (C57Bl/6J). The conditions noted are these: 5 mg/kg oral gavage. An outline of the steps:
(§2)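 Oral dosing of C57Bl/6J wild-type mice at 5 mg/kg, brain collection 4 h afterwards, then ABPP of brain proteomes to give % target inhibition.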

Test [3] concerns the target T2, MAGL (Mus musculus (Mouse), UniProt O35678). Kind of test: In vitro competitive activity-based protein profiling (mouse brain membrane fraction or cell lysates), MAGL band. The class given is biochemical. The conditions noted are these: mouse proteome; for inhibition at 1 µM: read-out: MAGL % Inh 1 μM (mouse); for IC50: competitive ABPP. The method, then:
In Vitro Competitive Activity-Based Protein Profiling.
Proteomes (mouse brain membrane fraction or cell lysates) (50 μL, 1.0 mg/mL total protein concentration) were preincubated with varying concentrations of inhibitors at 37° C. After 30 min, FP—Rh (1.0 μL, 50 μM in DMSO) was added and the mixture was incubated for another 30 min at 37° C. Reactions were quenched with SDS loading buffer (50 μL-4×) and run on SDS-PAGE.

Test [4] deals with T3, FAAH (Mus musculus (Mouse), UniProt O08914). As to the kind of experiment: In vitro competitive activity-based protein profiling (mouse brain membrane fraction or cell lysates), FAAH band. As to conditions: mouse proteome; for inhibition at 1 µM: read-out: FAAH % Inh 1 μM (mouse); for IC50: competitive ABPP. The class given is biochemical. An outline of the steps: as §1
For test [5], the target named is T3, FAAH. Kind of test: Mouse brain proteomes from inhibitor treated mice (oral gavage, sacrificed 4 h after administration, ABPP analysis), FAAH. The class given is in vivo, mouse (C57Bl/6J). The conditions noted are these: 5 mg/kg oral gavage. An outline of the steps:
as §2

In test [6] the target is T2, MAGL. As to the kind of experiment: Mouse brain proteomes from inhibitor treated mice (oral gavage, sacrificed 4 h after administration, ABPP analysis). The class given is in vivo, mouse (C57Bl/6J). The conditions noted are these: 5 mg/kg oral gavage. The method, boiled down: as §2

Where only a bound is given, the exact number is not on record here.

T3 sequence (O08914 whole entry): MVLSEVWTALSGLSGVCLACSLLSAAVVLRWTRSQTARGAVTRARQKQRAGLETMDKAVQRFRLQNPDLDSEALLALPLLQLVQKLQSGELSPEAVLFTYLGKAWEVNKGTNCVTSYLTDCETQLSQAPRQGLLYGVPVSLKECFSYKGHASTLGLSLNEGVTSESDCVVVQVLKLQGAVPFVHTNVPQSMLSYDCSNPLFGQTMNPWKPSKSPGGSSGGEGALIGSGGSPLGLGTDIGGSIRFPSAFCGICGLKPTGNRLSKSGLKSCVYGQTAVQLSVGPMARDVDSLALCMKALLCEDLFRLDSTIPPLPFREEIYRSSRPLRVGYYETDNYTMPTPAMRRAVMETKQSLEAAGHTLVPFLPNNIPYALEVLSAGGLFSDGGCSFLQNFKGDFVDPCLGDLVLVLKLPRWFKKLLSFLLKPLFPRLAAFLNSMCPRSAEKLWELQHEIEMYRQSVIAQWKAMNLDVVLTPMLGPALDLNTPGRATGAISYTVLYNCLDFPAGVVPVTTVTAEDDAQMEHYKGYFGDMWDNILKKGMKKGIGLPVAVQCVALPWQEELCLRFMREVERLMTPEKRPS
T2 sequence (O35678 whole entry): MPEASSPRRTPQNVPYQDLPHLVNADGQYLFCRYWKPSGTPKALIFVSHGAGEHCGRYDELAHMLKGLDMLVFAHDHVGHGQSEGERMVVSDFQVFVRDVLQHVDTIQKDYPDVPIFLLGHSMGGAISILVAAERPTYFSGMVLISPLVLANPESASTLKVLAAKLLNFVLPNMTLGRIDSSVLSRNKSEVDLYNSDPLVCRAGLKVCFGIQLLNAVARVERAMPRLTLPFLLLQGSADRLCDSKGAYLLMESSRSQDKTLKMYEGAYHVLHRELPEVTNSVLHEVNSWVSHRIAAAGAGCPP
T1 sequence (Q8R2Y0 whole entry): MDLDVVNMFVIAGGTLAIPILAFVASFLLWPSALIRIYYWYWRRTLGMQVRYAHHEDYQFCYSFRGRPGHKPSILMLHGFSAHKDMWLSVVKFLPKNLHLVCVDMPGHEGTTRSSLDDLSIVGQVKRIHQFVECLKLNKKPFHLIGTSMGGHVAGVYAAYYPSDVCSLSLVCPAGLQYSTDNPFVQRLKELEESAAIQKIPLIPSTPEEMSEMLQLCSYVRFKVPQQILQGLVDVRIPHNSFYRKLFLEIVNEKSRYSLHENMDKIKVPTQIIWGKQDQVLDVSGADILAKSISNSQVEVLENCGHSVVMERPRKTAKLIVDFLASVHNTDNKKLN

As to `O=C(OC(C(F)(F)F)C(F)(F)F)N1CCC2(CCCN2Cc2ccc(Cl)c(N3CCCC3)c2)CC1` [Example 132, 1,1,1,3,3,3-Hexafluoropropan-2-yl 1-(4-chloro-3-(pyrrolidin-1-yl)benzyl)-1,8-diazaspiro[4.5]decane-8-carboxylate], the results for the inhibition at 1 µM on ABHD6 [1], on MAGL [3] and at FAAH [4] were < 25%, > 75% and < 25%, respectively. Also, the IC50 was > 1000 nM at ABHD6 [1], < 100 nM on MAGL [3] and > 1000 nM on FAAH [4]. Further, on ABHD6 [2], the “ABHD6 % Inh 5 mg/kg (mouse)” value is listed as “# (# is <25%)”. For the same molecule, the “FAAH % Inh 5 mg/kg (mouse)” value at FAAH [5] is “# (# is <25%)”. Besides, the “MAGL % Inh 5 mg/kg (mouse)” value at MAGL [6] was “### (### is ≥75%)”.

Take `CS(=O)(=O)N1CCc2cccc(CN3CCCC34CCN(C(=O)OC(C(F)(F)F)C(F)(F)F)CC4)c2C1` [Example 146, 1,1,1,3,3,3-Hexafluoropropan-2-yl 1-((2-methanesulfonyl-1,2,3,4-tetrahydroisoquinolin-8-yl)methyl)-1,8-diazaspiro[4.5]decane-8-carboxylate]: the inhibition at 1 µM on ABHD6 [1] was 25 to 75%; at MAGL [3], > 75%; on FAAH [4] it was < 25%. The results for the IC50 on ABHD6 [1], on MAGL [3] and at FAAH [4] were > 1000 nM, < 100 nM and > 1000 nM, respectively. Also, the “ABHD6 % Inh 5 mg/kg (mouse)” value at ABHD6 [2] is listed as “## (## is equal to or greater than 25% but less than 75%)”. The “FAAH % Inh 5 mg/kg (mouse)” value on FAAH [5] is listed as “# (# is <25%)”. The “MAGL % Inh 5 mg/kg (mouse)” value on MAGL [6] was “### (### is ≥75%)”.

Consider `CCc1cc(CN2CCCC23CCN(C(=O)OC(C(F)(F)F)C(F)(F)F)CC3)ccc1F` [Example 150, 1,1,1,3,3,3-Hexafluoropropan-2-yl 1-(3-ethyl-4-fluorobenzyl)-1,8-diazaspiro[4.5]decane-8-carboxylate], for which the results for the inhibition at 1 µM at ABHD6 [1], at MAGL [3] and on FAAH [4] were < 25%, > 75% and < 25%, respectively. For the same molecule, the IC50 was > 1000 nM at ABHD6 [1], < 100 nM at MAGL [3] and > 1000 nM at FAAH [4]. Moreover, the “ABHD6 % Inh 5 mg/kg (mouse)” value on ABHD6 [2] is reported as “# (# is <25%)”. The “FAAH % Inh 5 mg/kg (mouse)” value on FAAH [5] is given as “# (# is <25%)”. In addition, on MAGL [6], the “MAGL % Inh 5 mg/kg (mouse)” value is “### (### is ≥75%)”.

Take `O=C(OC(C(F)(F)F)C(F)(F)F)N1CCC2(CCCN2Cc2ccc3c(c2)COC3)CC1` [Example 151, 1,1,1,3,3,3-Hexafluoropropan-2-yl 1-((1,3-dihydroisobenzofuran-5-yl)methyl)-1,8-diazaspiro[4.5]decane-8-carboxylate]: the inhibition at 1 µM at ABHD6 [1] was < 25%; at MAGL [3], > 75%; at FAAH [4], < 25%. Moreover, the IC50 is > 1000 nM on ABHD6 [1], < 100 nM at MAGL [3] and > 1000 nM at FAAH [4]. Moreover, the “ABHD6 % Inh 5 mg/kg (mouse)” value at ABHD6 [2] was “## (## is equal to or greater than 25% but less than 75%)”. The “FAAH % Inh 5 mg/kg (mouse)” value on FAAH [5] is recorded as “## (## is equal to or greater than 25% but less than 75%)”. Further, the “MAGL % Inh 5 mg/kg (mouse)” value on MAGL [6] was “### (### is ≥75%)”.

For the molecule `CCc1cc(CN2CCC3(CCN(C(=O)OC(C(F)(F)F)C(F)(F)F)CC3)C2)ccc1F` [Example 152, 1,1,1,3,3,3-Hexafluoropropan-2-yl 2-(3-ethyl-4-fluorobenzyl)-2,8-diazaspiro[4.5]decane-8-carboxylate], the figures for the inhibition at 1 µM at ABHD6 [1], at MAGL [3] and on FAAH [4] were ≥ 75%, > 75% and < 25%, respectively. The IC50 at ABHD6 [1] was 100 to 1000 nM; at MAGL [3], < 100 nM; on FAAH [4], > 1000 nM. In addition, at ABHD6 [2], the “ABHD6 % Inh 5 mg/kg (mouse)” value is listed as “### (### is ≥75%)”. Further, at FAAH [5], the “FAAH % Inh 5 mg/kg (mouse)” value was “# (# is <25%)”. Also, the “MAGL % Inh 5 mg/kg (mouse)” value on MAGL [6] is “### (### is ≥75%)”.

On to `O=C(OC(C(F)(F)F)C(F)(F)F)N1CCC2(CCN(Cc3ccc(C(F)(F)F)c(N4CCCC4)c3)C2)CC1` [Example 157, 1,1,1,3,3,3-Hexafluoropropan-2-yl 2-(3-(pyrrolidin-1-yl)-4-(trifluoromethyl)benzyl)-2,8-diazaspiro[4.5]decane-8-carboxylate], for which the figures for the inhibition at 1 µM at ABHD6 [1], on MAGL [3] and at FAAH [4] were ≥ 75%, > 75% and < 25%, respectively. The IC50 was 100 to 1000 nM on ABHD6 [1], < 100 nM at MAGL [3] and > 1000 nM at FAAH [4]. For the same molecule, the “ABHD6 % Inh 5 mg/kg (mouse)” value on ABHD6 [2] is given as “## (## is equal to or greater than 25% but less than 75%)”. The “FAAH % Inh 5 mg/kg (mouse)” value on FAAH [5] was “# (# is <25%)”. For the same molecule, the “MAGL % Inh 5 mg/kg (mouse)” value at MAGL [6] is recorded as “### (### is ≥75%)”.

Take `CN1CCC(Oc2cc(CN3CCCC34CCN(C(=O)OC(C(F)(F)F)C(F)(F)F)CC4)cc(C(F)(F)F)c2)CC1` [Example 166, 1,1,1,3,3,3-Hexafluoropropan-2-yl 1-(3-(1-methylpiperidin-4-yloxy)-5-(trifluoromethyl)benzyl)-1,8-diazaspiro[4.5]decane-8-carboxylate]: the inhibition at 1 µM at ABHD6 [1] is < 25%; on MAGL [3] it was > 75%; at FAAH [4], < 25%. Besides, the IC50 at ABHD6 [1] was > 1000 nM; on MAGL [3], < 100 nM; at FAAH [4], > 1000 nM. Also, on ABHD6 [2], the “ABHD6 % Inh 5 mg/kg (mouse)” value was “# (# is <25%)”. Also, the “FAAH % Inh 5 mg/kg (mouse)” value on FAAH [5] is recorded as “# (# is <25%)”. At MAGL [6], the “MAGL % Inh 5 mg/kg (mouse)” value is recorded as “# (# is <25%)”.

For the molecule `O=C(COc1cc(CN2CCCC23CCN(C(=O)OC(C(F)(F)F)C(F)(F)F)CC3)cc(C(F)(F)F)c1)N1CCCC1` [Example 168, 1,1,1,3,3,3-Hexafluoropropan-2-yl 1-(3-(2-oxo-2-(pyrrolidin-1-yl)ethoxy)-5-(trifluoromethyl)benzyl)-1,8-diazaspiro[4.5]decane-8-carboxylate], the results for the inhibition at 1 µM on ABHD6 [1], at MAGL [3] and at FAAH [4] were < 25%, > 75% and < 25%, respectively. Besides, the IC50 is > 1000 nM on ABHD6 [1], < 100 nM on MAGL [3] and > 1000 nM on FAAH [4]. Besides, the “ABHD6 % Inh 5 mg/kg (mouse)” value on ABHD6 [2] is “# (# is <25%)”. The “FAAH % Inh 5 mg/kg (mouse)” value on FAAH [5] was “# (# is <25%)”. Further, the “MAGL % Inh 5 mg/kg (mouse)” value on MAGL [6] is listed as “## (## is equal to or greater than 25% but less than 75%)”.

In the case of `O=C(OC(C(F)(F)F)C(F)(F)F)N1CCC2(CCCN2Cc2cc(OC3CCOCC3)cc(C(F)(F)F)c2)CC1` [Example 170, 1,1,1,3,3,3-Hexafluoropropan-2-yl 1-(3-(tetrahydro-2H-pyran-4-yloxy)-5-(trifluoromethyl)benzyl)-1,8-diazaspiro[4.5]decane-8-carboxylate], the inhibition at 1 µM on ABHD6 [1] is < 25%; on MAGL [3] it was > 75%; on FAAH [4], < 25%. The IC50 at ABHD6 [1] was > 1000 nM; on MAGL [3], < 100 nM; at FAAH [4] it was > 1000 nM. Moreover, the “ABHD6 % Inh 5 mg/kg (mouse)” value at ABHD6 [2] is recorded as “# (# is <25%)”. Also, the “FAAH % Inh 5 mg/kg (mouse)” value on FAAH [5] is “# (# is <25%)”. Also, the “MAGL % Inh 5 mg/kg (mouse)” value at MAGL [6] is given as “## (## is equal to or greater than 25% but less than 75%)”.

As for `O=C(OC(C(F)(F)F)C(F)(F)F)N1CCC2(CCCN2Cc2cc(Oc3nc4ccccc4s3)cc(C(F)(F)F)c2)CC1` [Example 172, 1,1,1,3,3,3-Hexafluoropropan-2-yl 1-(3-(benzo[d]thiazol-2-yloxy)-5-(trifluoromethyl)benzyl)-1,8-diazaspiro[4.5]decane-8-carboxylate], the inhibition at 1 µM on ABHD6 [1] was < 25%; at MAGL [3] it was > 75%; on FAAH [4], < 25%. Further, the values for the IC50 on ABHD6 [1], at MAGL [3] and at FAAH [4] were > 1000 nM, < 100 nM and > 1000 nM, respectively. On ABHD6 [2], the “ABHD6 % Inh 5 mg/kg (mouse)” value is on record as “# (# is <25%)”. Further, the “FAAH % Inh 5 mg/kg (mouse)” value at FAAH [5] is on record as “# (# is <25%)”. Further, the “MAGL % Inh 5 mg/kg (mouse)” value on MAGL [6] is “# (# is <25%)”.

As for `O=C(OC(C(F)(F)F)C(F)(F)F)N1CCC2(CCCN2Cc2ccc(C(F)(F)F)cc2Oc2cccnc2)CC1` [Example 173, 1,1,1,3,3,3-Hexafluoropropan-2-yl 1-(2-(pyridin-3-yloxy)-4-(trifluoromethyl)benzyl)-1,8-diazaspiro[4.5]decane-8-carboxylate], the figures for the inhibition at 1 µM on ABHD6 [1], on MAGL [3] and at FAAH [4] were 25 to 75%, > 75% and < 25%, respectively. Moreover, the IC50 was > 1000 nM at ABHD6 [1], < 100 nM on MAGL [3] and > 1000 nM at FAAH [4]. The “ABHD6 % Inh 5 mg/kg (mouse)” value on ABHD6 [2] is listed as “# (# is <25%)”. On FAAH [5], the “FAAH % Inh 5 mg/kg (mouse)” value is “# (# is <25%)”. Moreover, on MAGL [6], the “MAGL % Inh 5 mg/kg (mouse)” value is “## (## is equal to or greater than 25% but less than 75%)”.
